# Assay results published in ChEMBL document CHEMBL4610000, “Discovery of structurally distinct tricyclic M4 positive allosteric modulator (PAM) chemotypes” (Bioorg Med Chem Lett, 2020).
# Test system: not listed separately
# Assay: Unbound fraction in rat plasma
# Format: ADME, cell-free
# Settings: not given
row,SMILES,fraction unbound
1,COc1cc(N2CC(NC(=O)c3ccc4nn(C)c(C)c4c3N)C2)c(Cl)cn1,0.008
2,Cn1nnc2ccc3c(NC4CN(c5cc(Cl)ncc5Cl)C4)ncnc3c21,0.007
3,Cc1c2c(ccc3c(NC4CN(c5cc(Cl)ncc5Cl)C4)ncnc32)nn1C,0.004
4,Cn1nnc2ccc(C(=O)NC3CN(c4cc(Cl)ncc4Cl)C3)c(N)c21,0.032
5,COc1cc(N2CC(Nc3ncnc4c3ccc3nn(C)c(C)c34)C2)c(Cl)cn1,0.002
6,Cc1c2c(N)c(C(=O)NC3CN(c4cc(Cl)ncc4Cl)C3)ccc2nn1C,0.01

# Biological target: T1, Muscarinic acetylcholine receptor M4 (Homo sapiens, UniProt P08173)
# T1 sequence (P08173 whole entry): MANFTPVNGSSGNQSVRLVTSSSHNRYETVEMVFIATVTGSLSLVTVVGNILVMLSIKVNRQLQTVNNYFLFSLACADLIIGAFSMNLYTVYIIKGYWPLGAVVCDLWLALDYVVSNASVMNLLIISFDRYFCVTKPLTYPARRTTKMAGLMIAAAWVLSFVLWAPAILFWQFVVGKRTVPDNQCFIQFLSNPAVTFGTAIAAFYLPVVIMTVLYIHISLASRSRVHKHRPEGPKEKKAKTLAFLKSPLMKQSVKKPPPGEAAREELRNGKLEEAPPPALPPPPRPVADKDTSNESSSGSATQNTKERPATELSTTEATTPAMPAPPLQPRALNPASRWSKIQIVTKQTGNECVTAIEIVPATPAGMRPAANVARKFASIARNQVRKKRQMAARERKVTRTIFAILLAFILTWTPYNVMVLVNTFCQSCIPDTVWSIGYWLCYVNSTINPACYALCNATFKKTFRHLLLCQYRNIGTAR
# Assay: Positive allosteric modulation of human muscarinic M4 receptor expressed in CHO cells co-expressing Gqi5 assessed as increase in acetylcholine-induced calcium mobilization
# Format: functional, cell-based
# Settings: not given
row,SMILES,EC50
1,Cc1c2c(N)c(C(=O)NC3CN(c4cccc(Cl)n4)C3)ccc2nn1C,1.45 µM
2,COc1cc(N2CC(NC(=O)c3ccc4nn(C)c(C)c4c3N)C2)c(Cl)cn1,0.148 µM
3,Cc1c2c(ccc3c(N4CC5(COC5)C4)ncnc32)nn1C,0.528 µM
4,Cn1nnc2ccc(C(=O)NC3CN(c4ncc(Cl)cc4F)C3)c(N)c21,0.364 µM
5,Cc1c2c(ccc3c(NCc4ccc(C(=O)NCC(C)(C)C)cc4)ncnc32)nn1C,0.957 µM
6,Cn1nnc2ccc3c(NCc4ccc(C(C)(C)O)cc4)ncnc3c21,1.72 µM
7,Cc1c2c(ccc3c(NCc4ccc(C(=O)NC5CCCC5)cc4)ncnc32)nn1C,0.239 µM
8,COc1cc(N2CC(Nc3ncnc4c3ccc3nnn(C)c34)C2)c(Cl)cn1,1.49 µM
9,Cc1c2c(N)c(C(=O)NC3CN(c4ncc(F)cn4)C3)ccc2nn1C,6.21 µM
10,Cc1c2c(N)c(C(=O)NC3CN(c4ncc(Cl)cc4F)C3)ccc2nn1C,0.244 µM
11,Cn1nnc2ccc3c(NC4CN(c5cc(Cl)ncc5Cl)C4)ncnc3c21,0.063 µM
12,Cn1nnc2ccc3c(NC4CCCC4)ncnc3c21,0.82 µM
13,Cc1c2c(N)c(C(=O)NC3CN(c4ccc(C(F)(F)F)nc4)C3)ccc2nn1C,0.137 µM
14,Cc1c2c(N)c(C(=O)NC3CN(c4ccc(F)c(F)c4)C3)ccc2nn1C,0.619 µM
15,Cc1c2c(ccc3c(NC4CCCC4)ncnc32)nn1C,0.848 µM
16,Cc1c2c(ccc3c(NC4CN(c5cc(Cl)ncc5Cl)C4)ncnc32)nn1C,0.275 µM
17,Cn1nnc2ccc(C(=O)NC3CN(c4cc(Cl)ncc4Cl)C3)c(N)c21,0.091 µM
18,COc1cc(N2CC(Nc3ncnc4c3ccc3nn(C)c(C)c34)C2)c(Cl)cn1,0.379 µM
19,Cc1c2c(N)c(C(=O)NC3CN(c4cc(Cl)ncc4Cl)C3)ccc2nn1C,0.125 µM

# Biological target: T2, Muscarinic acetylcholine receptor M4 (Rattus norvegicus, UniProt P08485)
# T2 sequence (P08485 whole entry): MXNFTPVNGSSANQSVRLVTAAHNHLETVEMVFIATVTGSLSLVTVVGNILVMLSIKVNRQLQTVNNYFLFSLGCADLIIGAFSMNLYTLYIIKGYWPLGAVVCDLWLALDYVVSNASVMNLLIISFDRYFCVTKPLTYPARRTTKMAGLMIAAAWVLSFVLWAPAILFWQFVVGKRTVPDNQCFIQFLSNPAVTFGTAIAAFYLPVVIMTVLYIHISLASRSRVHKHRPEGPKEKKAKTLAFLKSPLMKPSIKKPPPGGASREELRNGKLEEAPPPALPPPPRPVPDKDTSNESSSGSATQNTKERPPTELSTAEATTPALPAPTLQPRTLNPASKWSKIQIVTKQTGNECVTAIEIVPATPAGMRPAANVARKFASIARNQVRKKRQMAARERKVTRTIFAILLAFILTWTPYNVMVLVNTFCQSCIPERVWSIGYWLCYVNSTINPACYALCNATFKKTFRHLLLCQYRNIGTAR
# Assay: Positive allosteric modulation of rat muscarinic M4 receptor
# Settings: not given
row,SMILES,EC50
1,COc1cc(N2CC(NC(=O)c3ccc4nn(C)c(C)c4c3N)C2)c(Cl)cn1,0.082 µM
2,Cn1nnc2ccc(C(=O)NC3CN(c4ncc(Cl)cc4F)C3)c(N)c21,0.167 µM
3,Cc1c2c(ccc3c(NCc4ccc(C(=O)NC5CCCC5)cc4)ncnc32)nn1C,0.168 µM
4,Cc1c2c(N)c(C(=O)NC3CN(c4ncc(Cl)cc4F)C3)ccc2nn1C,0.072 µM
5,Cn1nnc2ccc3c(NC4CN(c5cc(Cl)ncc5Cl)C4)ncnc3c21,0.148 µM
6,Cc1c2c(N)c(C(=O)NC3CN(c4ccc(C(F)(F)F)nc4)C3)ccc2nn1C,0.112 µM
7,Cc1c2c(ccc3c(NC4CN(c5cc(Cl)ncc5Cl)C4)ncnc32)nn1C,0.254 µM
8,Cn1nnc2ccc(C(=O)NC3CN(c4cc(Cl)ncc4Cl)C3)c(N)c21,0.157 µM
9,COc1cc(N2CC(Nc3ncnc4c3ccc3nn(C)c(C)c34)C2)c(Cl)cn1,0.226 µM
10,Cc1c2c(N)c(C(=O)NC3CN(c4cc(Cl)ncc4Cl)C3)ccc2nn1C,0.042 µM

# Test system: not listed separately
# Assay: Unbound brain-to-plasma concentration ratio in Sprague-Dawley rat at 0.2 mg/kg, iv measured after 0.25 hrs
# Format: ADME, organism-based
# Settings: brain and plasma, read-out: K(p,uu,brain)
row,SMILES,Kp uu at 0.25 h
1,COc1cc(N2CC(NC(=O)c3ccc4nn(C)c(C)c4c3N)C2)c(Cl)cn1,0.25
2,Cn1nnc2ccc3c(NC4CN(c5cc(Cl)ncc5Cl)C4)ncnc3c21,0.11
3,Cc1c2c(ccc3c(NC4CN(c5cc(Cl)ncc5Cl)C4)ncnc32)nn1C,0.11
4,Cn1nnc2ccc(C(=O)NC3CN(c4cc(Cl)ncc4Cl)C3)c(N)c21,0.18
5,COc1cc(N2CC(Nc3ncnc4c3ccc3nn(C)c(C)c34)C2)c(Cl)cn1,3.88
6,Cc1c2c(N)c(C(=O)NC3CN(c4cc(Cl)ncc4Cl)C3)ccc2nn1C,0.3

# Test system: not listed separately
# Assay: Intrinsic clearance in human microsomes
# Format: ADME, Microsome
# Settings: not given
row,SMILES,CLint scaled
1,COc1cc(N2CC(NC(=O)c3ccc4nn(C)c(C)c4c3N)C2)c(Cl)cn1,0.54 L/h/kg
2,Cn1nnc2ccc3c(NC4CN(c5cc(Cl)ncc5Cl)C4)ncnc3c21,1.26 L/h/kg
3,Cc1c2c(ccc3c(NC4CN(c5cc(Cl)ncc5Cl)C4)ncnc32)nn1C,7.2 L/h/kg
4,Cn1nnc2ccc(C(=O)NC3CN(c4cc(Cl)ncc4Cl)C3)c(N)c21,1.62 L/h/kg
5,COc1cc(N2CC(Nc3ncnc4c3ccc3nn(C)c(C)c34)C2)c(Cl)cn1,3.3 L/h/kg
6,Cc1c2c(N)c(C(=O)NC3CN(c4cc(Cl)ncc4Cl)C3)ccc2nn1C,3 L/h/kg

# Test system: not listed separately
# Assay: Unbound fraction in human plasma
# Format: ADME, cell-free
# Settings: not given
row,SMILES,fraction unbound
1,COc1cc(N2CC(NC(=O)c3ccc4nn(C)c(C)c4c3N)C2)c(Cl)cn1,0.045
2,Cn1nnc2ccc3c(NC4CN(c5cc(Cl)ncc5Cl)C4)ncnc3c21,0.021
3,Cc1c2c(ccc3c(NC4CN(c5cc(Cl)ncc5Cl)C4)ncnc32)nn1C,0.008
4,Cn1nnc2ccc(C(=O)NC3CN(c4cc(Cl)ncc4Cl)C3)c(N)c21,0.084
5,COc1cc(N2CC(Nc3ncnc4c3ccc3nn(C)c(C)c34)C2)c(Cl)cn1,0.007
6,Cc1c2c(N)c(C(=O)NC3CN(c4cc(Cl)ncc4Cl)C3)ccc2nn1C,0.034

# Biological target: T3, Muscarinic acetylcholine receptor M4 (Homo sapiens) (UniProt P08173)
# T3 sequence (whole entry): T1 sequence (P08173 whole entry)
# Assay: Positive allosteric modulation of human muscarinic M4 receptor expressed in CHO cells co-expressing Gqi5 assessed as increase in acetylcholine-induced calcium mobilization relative to acetylcholine
# Format: functional, cell-based
# Settings: not given
row,SMILES,%max
1,Cc1c2c(N)c(C(=O)NC3CN(c4cccc(Cl)n4)C3)ccc2nn1C,78%
2,COc1cc(N2CC(NC(=O)c3ccc4nn(C)c(C)c4c3N)C2)c(Cl)cn1,80%
3,Cc1c2c(ccc3c(N4CC5(COC5)C4)ncnc32)nn1C,90%
4,Cn1nnc2ccc(C(=O)NC3CN(c4ncc(Cl)cc4F)C3)c(N)c21,65%
5,Cc1c2c(ccc3c(NCc4ccc(C(=O)NCC(C)(C)C)cc4)ncnc32)nn1C,90%
6,Cn1nnc2ccc3c(NCc4ccc(C(C)(C)O)cc4)ncnc3c21,97%
7,Cc1c2c(ccc3c(NCc4ccc(C(=O)NC5CCCC5)cc4)ncnc32)nn1C,100%
8,COc1cc(N2CC(Nc3ncnc4c3ccc3nnn(C)c34)C2)c(Cl)cn1,93%
9,Cc1c2c(N)c(C(=O)NC3CN(c4ncc(F)cn4)C3)ccc2nn1C,90%
10,Cc1c2c(N)c(C(=O)NC3CN(c4ncc(Cl)cc4F)C3)ccc2nn1C,96%
11,Cn1nnc2ccc3c(NC4CN(c5cc(Cl)ncc5Cl)C4)ncnc3c21,81%
12,Cn1nnc2ccc3c(NC4CCCC4)ncnc3c21,69%
13,Cc1c2c(N)c(C(=O)NC3CN(c4ccc(C(F)(F)F)nc4)C3)ccc2nn1C,80%
14,Cc1c2c(N)c(C(=O)NC3CN(c4ccc(F)c(F)c4)C3)ccc2nn1C,85%
15,Cc1c2c(ccc3c(NC4CCCC4)ncnc32)nn1C,76%
16,Cc1c2c(ccc3c(NC4CN(c5cc(Cl)ncc5Cl)C4)ncnc32)nn1C,101%
17,Cn1nnc2ccc(C(=O)NC3CN(c4cc(Cl)ncc4Cl)C3)c(N)c21,63%
18,COc1cc(N2CC(Nc3ncnc4c3ccc3nn(C)c(C)c34)C2)c(Cl)cn1,86%
19,Cc1c2c(N)c(C(=O)NC3CN(c4cc(Cl)ncc4Cl)C3)ccc2nn1C,86%

# Test system: not listed separately
# Assay: Intrinsic clearance in rat microsomes
# Format: ADME, Microsome
# Settings: not given
row,SMILES,CLint scaled
1,COc1cc(N2CC(NC(=O)c3ccc4nn(C)c(C)c4c3N)C2)c(Cl)cn1,1.8 L/h/kg
2,Cn1nnc2ccc3c(NC4CN(c5cc(Cl)ncc5Cl)C4)ncnc3c21,6.6 L/h/kg
3,Cc1c2c(ccc3c(NC4CN(c5cc(Cl)ncc5Cl)C4)ncnc32)nn1C,10.2 L/h/kg
4,Cn1nnc2ccc(C(=O)NC3CN(c4cc(Cl)ncc4Cl)C3)c(N)c21,7.2 L/h/kg
5,COc1cc(N2CC(Nc3ncnc4c3ccc3nn(C)c(C)c34)C2)c(Cl)cn1,7.2 L/h/kg
6,Cc1c2c(N)c(C(=O)NC3CN(c4cc(Cl)ncc4Cl)C3)ccc2nn1C,10.8 L/h/kg

# Test system: not listed separately
# Assay: Brain to plasma permeability coefficient, Kp of the compound in Sprague-Dawley rat at 0.2 mg/kg, iv measured after 0.25 hrs
# Format: ADME, organism-based
# Settings: brain and plasma
row,SMILES,Kp at 0.25 h
1,COc1cc(N2CC(NC(=O)c3ccc4nn(C)c(C)c4c3N)C2)c(Cl)cn1,0.18
2,Cn1nnc2ccc3c(NC4CN(c5cc(Cl)ncc5Cl)C4)ncnc3c21,0.25
3,Cc1c2c(ccc3c(NC4CN(c5cc(Cl)ncc5Cl)C4)ncnc32)nn1C,0.21
4,Cn1nnc2ccc(C(=O)NC3CN(c4cc(Cl)ncc4Cl)C3)c(N)c21,0.17
5,COc1cc(N2CC(Nc3ncnc4c3ccc3nn(C)c(C)c34)C2)c(Cl)cn1,1.55
6,Cc1c2c(N)c(C(=O)NC3CN(c4cc(Cl)ncc4Cl)C3)ccc2nn1C,0.12

# Test system: not listed separately
# Assay: Unbound fraction in rat brain
# Format: ADME, tissue-based
# Settings: not given
row,SMILES,fraction unbound
1,COc1cc(N2CC(NC(=O)c3ccc4nn(C)c(C)c4c3N)C2)c(Cl)cn1,0.011
2,Cn1nnc2ccc3c(NC4CN(c5cc(Cl)ncc5Cl)C4)ncnc3c21,0.003
3,Cc1c2c(ccc3c(NC4CN(c5cc(Cl)ncc5Cl)C4)ncnc32)nn1C,0.002
4,Cn1nnc2ccc(C(=O)NC3CN(c4cc(Cl)ncc4Cl)C3)c(N)c21,0.033
5,COc1cc(N2CC(Nc3ncnc4c3ccc3nn(C)c(C)c34)C2)c(Cl)cn1,0.005
6,Cc1c2c(N)c(C(=O)NC3CN(c4cc(Cl)ncc4Cl)C3)ccc2nn1C,0.025
